Test results: US20070060605A1, “Compositions and methods for inhibiting platelet activation and thrombosis” (priority 2001, published 2007)
Like-named read-outs stand apart in the source and are kept apart here.

How the values were obtained:
platelets [1] = experiment: F-actin assembly (FITC-phalloidin, flow cytometry); format: cell-based, human; details: agonist SFLLR
Source text: To determine whether or not the effects of the pyridazinone compound were limited to inhibition of alpha-granule secretion, the ability of the compound to inhibit F-actin assembly and αIIbβ3 activation was examined. F-actin assembly was detected using FITC-phalloidin and quantified by flow cytometry (Winokur et al., 1995, Blood 85, 1796-804; Oda et al., 1992, Blood 79, 920-7).

platelets [2] = experiment: Agonist-induced platelet granule secretion / activation (P-selectin expression by flow cytometry; ADP/ATP release); format: cell-based, human; details: for IC50: Homo sapiens, Platelet
Experimental: In order to monitor ATP release, a cocktail of 100 μM SFLLR (synthesized using solid phase Fmoc chemistry on an Applied Biosystems model 430A peptide synthesizer) and 3 mg/ml of luciferin/luciferase (Sigma, St. Louis, Mo.) in a volume of 10 μl is added to 20 μl of PRP. Samples are immediately analyzed for luminescence. Activated platelets supply the ATP necessary for luminescence of the luciferin/luciferase assay. Assays can be performed at high throughput through use of a microtiter plate system, e.g., 384-well plates and a Multidrop 384 (Thermo Labsystems, Helsinki), read with a high density imaging system, e.g., the Tundra system (Imaging Research, St. Catherine's, Ontario).
(§1) In order to assay platelet activation by cell surface marker expression, fresh PRP is isolated from donors who have not ingested aspirin for two weeks prior to donation. PRP (40 μl) is incubated with known or suspected inhibitor in DMSO or DMSO alone for 15 min. The sample is then incubated with the indicated agonist (e.g., SFLLR) for 10 min. Following incubation of the sample with the indicated agonist, 10 μl of reaction mixture is transferred to 5 μl of phycoerythrin (PE)-conjugated AC 1.2 anti-P-selectin antibody (for assessment of P-selectin surface expression) or fluorescein isothiocyanate (FITC)-conjugated PAC-1 antibody (for assessment of GPIIbIIIa activation). PBS (500 μl) is added to the sample after a 20 min incubation and the platelets are analyzed immediately by flow cytometry. Flow cytometry can be performed using, for example, a Becton-Dickinson FACSCalibur flow cytometer or its equivalent. Fluorescent channels are set at logarithmic gain. Ten thousand particles are acquired for each sample. A 530/30 band pass filter is used for FL-1 fluorescence. A 585/42 band pass filter is used for FL-2 fluorescence. FITC is measured in the FL-1 channel and PE is measured in the FL-2 channel. Data are analyzed using, for example, CellQuest software on a Macintosh PowerPC, or their equivalents.
Compounds were tested for the ability to inhibit agonist-induced ADP/ATP release from platelet dense granules using a luciferin-luciferase reporter system. In this assay, compounds were incubated with platelet-rich plasma (PRP) for 30 min. A cocktail of the platelet agonist and luciferin-luciferase was then added to the wells. Plates were immediately analyzed using a Tundra high density luminescence imager. […] As a control, compounds were also screened in a platelet-free assay for the ability to inhibit luciferin-luciferase upon exposure to ATP.
Each of the compounds was tested for inhibition of platelet activation in response to the agonists SFLLR (a thrombin mimic), U46619 (a thromboxane A2 mimic), ADP and the phorbol ester PMA.
(§2) Compounds were also tested by flow cytometry for the inhibition of SFLLR-induced GPIIbIIIa activation and P-selectin expression. In these experiments, freshly obtained PRP was prepared from healthy volunteers who had not ingested aspirin for two weeks prior to donation. Forty μl of PRP was incubated with inhibitor in DMSO or DMSO alone for 15 min. The sample was then incubated with the indicated agonist for 10 min. Following incubation of the sample with the indicated agonist, 10 μl of reaction mixture was transferred to 5 μl of PE-conjugated AC1.2 anti-P-selectin antibody (for assessment of P-selectin surface expression) or FITC-conjugated PAC-1 antibody (for assessment of GPIIbIIIa activation). PBS (500 μl) was added to the sample after a 20 min incubation and the platelets were analyzed immediately by flow cytometry. Flow cytometry was performed using a Becton-Dickinson FACSCalibur flow cytometer. Fluorescent channels were set at logarithmic gain. Ten thousand particles were acquired for each sample. A 530/30 band pass filter was used for FL-1 fluorescence. A 585/42 band pass filter was used for FL-2 fluorescence. FITC was measured in the FL-1 channel and PE was measured in the FL-2 channel.

platelet GPIIbIIIa = experiment: SFLLR-induced GPIIbIIIa activation (PAC-1 antibody, flow cytometry); format: cell-based, human; details: PAC-1 antibodies
Experimental: as §1
as §2, with “channel. Data were analyzed using CellQuest software on a MacIntosh PowerPC.” for “channel.”

[3] = test system: platelet protein palmitoylation; experiment: Incorporation of [3H]-palmitate into platelet proteins; format: cell-based; details: 100 μM compound; 20 μM or 200 μM SFLLRN
Experimental: Platelets were labeled with [^3H]-palmitate for 2 hours in the absence (lanes 1, 2, and 3) or presence (lanes 4, 5, and 6) of 100 μM JF081204{5C} for 2 hours. Labeled platelets were then incubated with 0 μM ([…]), 20 μM (lanes 2 and 5), or 200 μM SFLLRN (lanes 3 and 6). Platelet samples were lysed, separated by SDS-PAGE, Western blotted, and visualized with a tritium imager screen (Panel a). The activation of platelets by SFLLRN led to an increase incorporation of [^3H]-palmitate into platelet proteins, whereas the presence of JF081204{5C} inhibited this activation-dependent [^3H]-palmitate incorporation (Panel b). Western blot membrane from panel (a) was stained with Ponceau S to visualize proteins in the platelet lysates.
The incorporation of [^3H]-palmitate into platelet intracellular proteins was examined to determine the effect of JF081204{5C} on platelet protein palmitoylation. […] Exposure of platelets to either 20 μM or 200 μM SFLLRN increased the intensity of the labeling. Incubation of platelets with 100 μM of JF081204{5C} inhibited the increase in [^3H]-palmitate incorporation induced by either 20 μM or 200 μM SFLLRN.

Row | SMILES | SFLLR-induced F-actin assembly / cytoskeleton rearrangement (platelets [1]) | ADP- and collagen-induced granule release less potent than SFLLR and U46619 (platelets [2]) | ADP-induced responses inhibited less effectively than SFLLR and U46619 responses (platelets [2]; ADP vs SFLLR and U46619) | IC50 (platelets [2]; agonist ADP, read-out: IC50s of inhibition of platelet granule secretion induced with ADP) [µM] | IC50 (platelets [2]; agonists SFLLR and U-46619, read-out: IC50 SFLLR- and U-46619-induced activation) [µM] | IC50 (platelets [2]; agonist Collagen, read-out: IC50 collagen-induced platelet granule release) [µM] | Inhibition of PMA-induced platelet activation (platelets [2]; agonist PMA) | Inhibition of PMA-induced activation (platelets [2]; agonist PMA, up to 1000 μM) | SFLLR-induced αIIbβ3 activation (platelet GPIIbIIIa) | U46619-, A23187-, and PMA-induced P-selectin expression less potent than SFLLR (platelets [2]) | IC50 (platelets [2]; agonist A23187, read-out: IC50 P-Selectin Expression Induced by A23187) [µM] | IC50 (platelets [2]; agonist PMA, read-out: IC50 P-Selectin Expression Induced by PMA) [µM] | IC50 (platelets [2]; agonist SFLLRN, maximally stimulatory dose, read-out: IC50 P-Selectin Expression Induced by SFLLRN) [µM] | IC50 (platelets [2]; agonist SFLLRN/SFLLR, human platelets, read-out: IC50 SFLLRN-induced P-selectin expression, flow cytometry) [µM] | IC50 (platelets [2]; agonist U46619, read-out: IC50 P-Selectin Expression Induced by U46619) [µM] | Potency in inhibiting SFLLRLN- and epinephrine-induced activation relative to other agonists (platelets [2]; footnote, sentence cut off) | Increase in [3H]-palmitate incorporation induced by SFLLRN [3]
1 | CC1CC(=O)NN=C1c1ccc(N)c([N+](=O)[O-])c1 (centres unmarked) [6-(4-Amino-3-nitro-phenyl)-5-methyl-4,5-dihydro-2H-pyridazin-3-one] | interferes | at least 25 fold | approximately 20 fold | 8 | 0.3 | 70 | did not inhibit | No inhibition | inhibited | – | – | – | – | – | – | – | –
2 | CCCCCn1c2c(c(=N)c3ccccc31)CCC2 [JF081204{5C}] | – | – | – | – | – | – | – | – | – | at least 150 fold | > 300 | 300 | 2 | 2 to 150 | 400 | #inhibit platelet activation induced by the indicated agonist is shown. The potency of this compound in inhibiting SFLLRLN- and epinephrine-induced activation was at least 100-fold greater than that o | inhibited
